Experimental findings from US20050042747A1, “Hivgp120-induced bob/gpr15 activation” (priority 2001, published 2005) are described below.

“Also recorded” adds a separate entry of the source.

Test [1] concerns microtubules in HT-29 cells. Put plainly: Microtubule staining (acetylated tubulin) in HT-29 cells. In kind it is cell-based, human. As to conditions: pretreatment before gp120. The protocol: To examine the microtubules, HT-29 cells were treated with 10 nM gp120CM235 or 50 pM gp120IIIB, then fixed one hour later in 4 g/100 ml paraformaldehyde PBS, then stained with mouse anti acetylated tubulin (5 μg/ml, Sigma) by a method similar to that given above. Some cells were pretreated with 50 μg/ml antiBob37 overnight, 1 μg/ml pertussis toxin overnight, or 4.6 μg/ml U73122 for one hour before the gp120 was added. Untreated cells were also stained.
Similarly treated undifferentiated HT-29 cells (except that Fluo-4 was not added) were fixed in paraformaldehyde phosphate buffered saline one hour after gp120 treatment.

In test [2] the test system is gp120-induced calcium signaling in HT-29 cells. Put plainly: Inhibition of gp120-induced calcium signaling in HT-29 cells. In kind it is cell-based, human. As to conditions: pretreatment. The protocol:
Calcium studies were done on HT-29 cells and Ghost (3) cells loaded with Fluo 4. The cells were placed in Locke's buffer containing 5 μg/ml Fluo 4 AM ester (Molecular Probes) for 20 to 30 minutes, then in Locke's buffer for an additional 30 minutes before testing. Various concentrations of gp120IIIB (X4 trophic), gp120CM235 (R5 trophic), gp120mN (X4 trophic), gp12093TH975 (nonsyncytium-inducing primary isolate from an asymptomatic subject, trophism undetermined but likely R5), and gp120SF2 (X4R5 trophic), ranging from 10 nM to less than 1 pM, were added in Locke's buffer.^6 The gp120 proteins were obtained from the AIDS Research Reagent Referral Program. Some HT-29 cells were given one of the following pretreatments: 50 μg/ml anti-Bob37 overnight, 1 μg/ml pertussis toxin overnight, or 4.6 μg/ml U73122 for one hour. With the HT-29 cells only, similar tests were also performed with SDF-1, MIP-1α, MIP-1β, and RANTES rather than gp120. The cells were visualized every 4 seconds in a confocal microscope, using 488 nm argon laser excitation and detection filters appropriate for fluorescein-like dyes.
Blocking antibody experiments were done with HT-29 cells (monitoring calcium flux, microtubule loss, or transepithelial resistance), with Ghost (3) Bob cells (monitoring calcium flux) and peripheral blood mononuclear cells (monitoring calcium flux and HIV infection). Specifics of these protocols and the specific results are given herein. […] Antibody concentrations of 40 to 50 micrograms/ml overnight were needed for maximal effect.
For the first two or three days after plating, gp120 induces an immediate (within 4 seconds) calcium flux in undifferentiated HT-29 cells. The cells had previously been loaded with Fluo-4 AM ester (Molecular Probes, Eugene Oreg.) 5 micrograms/ml in the presence of Pleuronic F-127 0.02% in Locke's buffer for 30 minutes, then incubated at room temperature for an additional 30 minutes. Gp120IIIB was added while the cells were on an inverted confocal microscope using a 488 nm argon laser, with detection filters suitable for fluorescein-like dyes. […]

Consider `COc1ccc2c(c1)CC[C@@H]1[C@@H]2CC[C@]2(C)[C@@H](NCCCCCCN3C(=O)C=CC3=O)CC[C@@H]12` [U73122], for which the “inhibition of gp120-induced microtubule loss” value in test [1] is “inhibited and not”. In test [2], the “inhibition of gp120-induced calcium signaling, in words” value was “No significant gp120IIIB-induced calcium signaling; also recorded: inhibited”.
With pertussis toxin, in test [1], the “inhibition of gp120-induced microtubule loss” value was “inhibited and not”. The “inhibition of gp120-induced calcium signaling, in words” value in test [2] is listed as “No significant gp120IIIB-induced calcium signaling; also recorded: inhibited”.
